Numbers after ± are expanded uncertainties.
Assay: xn = mol fraction of the nth substance listed
Conditions: Gas, Hot wire method

Compound: C [methane] + O=C=O
- thermal conductivity (300 K, 724 kPa, x1 = 0.2493): 0.02096 ± 0.00039 W/m/K
- thermal conductivity (300 K, 727 kPa, x1 = 0.4994): 0.02533 ± 0.00046 W/m/K
- thermal conductivity (300 K, 730 kPa, x1 = 0.7496): 0.03005 ± 0.00053 W/m/K
- thermal conductivity (300 K, 1240 kPa, x1 = 0.7496): 0.03027 ± 0.00054 W/m/K
- thermal conductivity (300 K, 1241 kPa, x1 = 0.4994): 0.02556 ± 0.00046 W/m/K
- thermal conductivity (300 K, 1288 kPa, x1 = 0.2493): 0.02125 ± 0.00039 W/m/K
- thermal conductivity (300 K, 1748 kPa, x1 = 0.4994): 0.02584 ± 0.00047 W/m/K
- thermal conductivity (300 K, 1770 kPa, x1 = 0.7496): 0.03051 ± 0.00054 W/m/K
- thermal conductivity (300 K, 1835 kPa, x1 = 0.2493): 0.02161 ± 0.0004 W/m/K
- thermal conductivity (300 K, 2212 kPa, x1 = 0.4994): 0.02613 ± 0.00047 W/m/K
- thermal conductivity (300 K, 2245 kPa, x1 = 0.7496): 0.03082 ± 0.00055 W/m/K
- thermal conductivity (300 K, 2335 kPa, x1 = 0.2493): 0.02197 ± 0.00041 W/m/K
- thermal conductivity (300 K, 2700 kPa, x1 = 0.4994): 0.02637 ± 0.00048 W/m/K
- thermal conductivity (300 K, 2740 kPa, x1 = 0.7496): 0.03109 ± 0.00055 W/m/K
- thermal conductivity (300 K, 2820 kPa, x1 = 0.2493): 0.02245 ± 0.00041 W/m/K
- thermal conductivity (300 K, 3118 kPa, x1 = 0.4994): 0.02681 ± 0.00048 W/m/K
- thermal conductivity (300 K, 3220 kPa, x1 = 0.7496): 0.03153 ± 0.00056 W/m/K
- thermal conductivity (300 K, 3275 kPa, x1 = 0.2493): 0.02287 ± 0.00042 W/m/K
- thermal conductivity (300 K, 3550 kPa, x1 = 0.4994): 0.02726 ± 0.00049 W/m/K
- thermal conductivity (300 K, 3680 kPa, x1 = 0.7496): 0.03188 ± 0.00057 W/m/K
- thermal conductivity (300 K, 3730 kPa, x1 = 0.2493): 0.02338 ± 0.00043 W/m/K
- thermal conductivity (300 K, 4160 kPa, x1 = 0.2493): 0.02399 ± 0.00044 W/m/K
- thermal conductivity (300 K, 4160 kPa, x1 = 0.7496): 0.03236 ± 0.00057 W/m/K
- thermal conductivity (300 K, 4550 kPa, x1 = 0.2493): 0.02452 ± 0.00045 W/m/K
- thermal conductivity (300 K, 4560 kPa, x1 = 0.7496): 0.03271 ± 0.00058 W/m/K
- thermal conductivity (300 K, 4660 kPa, x1 = 0.4994): 0.02839 ± 0.00051 W/m/K
- thermal conductivity (300 K, 4920 kPa, x1 = 0.2493): 0.0252 ± 0.00046 W/m/K
- thermal conductivity (300 K, 5000 kPa, x1 = 0.7496): 0.03324 ± 0.00059 W/m/K
- thermal conductivity (300 K, 5670 kPa, x1 = 0.4994): 0.02959 ± 0.00053 W/m/K
- thermal conductivity (300 K, 6570 kPa, x1 = 0.4994): 0.03101 ± 0.00056 W/m/K
- thermal conductivity (325 K, 793 kPa, x1 = 0.2493): 0.0234 ± 0.00043 W/m/K
- thermal conductivity (325 K, 797 kPa, x1 = 0.7496): 0.03345 ± 0.00059 W/m/K
- thermal conductivity (325 K, 800 kPa, x1 = 0.4994): 0.02831 ± 0.0005 W/m/K
- thermal conductivity (325 K, 1350 kPa, x1 = 0.4994): 0.02846 ± 0.00051 W/m/K
- thermal conductivity (325 K, 1358 kPa, x1 = 0.7496): 0.03366 ± 0.00059 W/m/K
- thermal conductivity (325 K, 1420 kPa, x1 = 0.2493): 0.02367 ± 0.00043 W/m/K
- thermal conductivity (325 K, 1896 kPa, x1 = 0.4994): 0.02871 ± 0.00051 W/m/K
- thermal conductivity (325 K, 1920 kPa, x1 = 0.7496): 0.0339 ± 0.0006 W/m/K
- thermal conductivity (325 K, 2020 kPa, x1 = 0.2493): 0.02398 ± 0.00044 W/m/K
- thermal conductivity (325 K, 2434 kPa, x1 = 0.4994): 0.02901 ± 0.00052 W/m/K
- thermal conductivity (325 K, 2465 kPa, x1 = 0.7496): 0.0342 ± 0.0006 W/m/K
- thermal conductivity (325 K, 2600 kPa, x1 = 0.2493): 0.02439 ± 0.00044 W/m/K
- thermal conductivity (325 K, 2970 kPa, x1 = 0.4994): 0.02933 ± 0.00052 W/m/K
- thermal conductivity (325 K, 3020 kPa, x1 = 0.7496): 0.0345 ± 0.00061 W/m/K
- thermal conductivity (325 K, 3160 kPa, x1 = 0.2493): 0.02478 ± 0.00045 W/m/K
- thermal conductivity (325 K, 3440 kPa, x1 = 0.4994): 0.02963 ± 0.00053 W/m/K
- thermal conductivity (325 K, 3520 kPa, x1 = 0.7496): 0.03477 ± 0.00061 W/m/K
- thermal conductivity (325 K, 3685 kPa, x1 = 0.2493): 0.02519 ± 0.00046 W/m/K
- thermal conductivity (325 K, 3920 kPa, x1 = 0.4994): 0.02999 ± 0.00054 W/m/K
- thermal conductivity (325 K, 4040 kPa, x1 = 0.7496): 0.03529 ± 0.00062 W/m/K
- thermal conductivity (325 K, 4210 kPa, x1 = 0.2493): 0.02561 ± 0.00047 W/m/K
- thermal conductivity (325 K, 4555 kPa, x1 = 0.7496): 0.03559 ± 0.00063 W/m/K
- thermal conductivity (325 K, 4690 kPa, x1 = 0.2493): 0.02615 ± 0.00048 W/m/K
- thermal conductivity (325 K, 5040 kPa, x1 = 0.7496): 0.03603 ± 0.00064 W/m/K
- thermal conductivity (325 K, 5170 kPa, x1 = 0.2493): 0.02675 ± 0.00049 W/m/K
- thermal conductivity (325 K, 5200 kPa, x1 = 0.4994): 0.03111 ± 0.00056 W/m/K
- thermal conductivity (325 K, 5560 kPa, x1 = 0.7496): 0.03638 ± 0.00064 W/m/K
- thermal conductivity (325 K, 5625 kPa, x1 = 0.2493): 0.02733 ± 0.0005 W/m/K
- thermal conductivity (325 K, 6380 kPa, x1 = 0.4994): 0.03222 ± 0.00058 W/m/K
- thermal conductivity (325 K, 7500 kPa, x1 = 0.4994): 0.03379 ± 0.0006 W/m/K
- thermal conductivity (350 K, 860 kPa, x1 = 0.2493): 0.026 ± 0.00047 W/m/K
- thermal conductivity (350 K, 862 kPa, x1 = 0.7496): 0.03707 ± 0.00064 W/m/K
- thermal conductivity (350 K, 865 kPa, x1 = 0.4994): 0.03135 ± 0.00055 W/m/K
- thermal conductivity (350 K, 1310 kPa, x1 = 0.2493): 0.02615 ± 0.00047 W/m/K
- thermal conductivity (350 K, 1464 kPa, x1 = 0.4994): 0.03154 ± 0.00056 W/m/K
- thermal conductivity (350 K, 1605 kPa, x1 = 0.7496): 0.03738 ± 0.00065 W/m/K
- thermal conductivity (350 K, 1750 kPa, x1 = 0.2493): 0.02631 ± 0.00047 W/m/K
- thermal conductivity (350 K, 2054 kPa, x1 = 0.4994): 0.03177 ± 0.00056 W/m/K
- thermal conductivity (350 K, 2180 kPa, x1 = 0.2493): 0.02656 ± 0.00048 W/m/K
- thermal conductivity (350 K, 2340 kPa, x1 = 0.7496): 0.03766 ± 0.00066 W/m/K
- thermal conductivity (350 K, 2610 kPa, x1 = 0.2493): 0.02669 ± 0.00048 W/m/K
- thermal conductivity (350 K, 2660 kPa, x1 = 0.4994): 0.03206 ± 0.00057 W/m/K
- thermal conductivity (350 K, 3020 kPa, x1 = 0.2493): 0.02694 ± 0.00049 W/m/K
- thermal conductivity (350 K, 3035 kPa, x1 = 0.7496): 0.03796 ± 0.00066 W/m/K
- thermal conductivity (350 K, 3190 kPa, x1 = 0.4994): 0.03224 ± 0.00057 W/m/K
- thermal conductivity (350 K, 3440 kPa, x1 = 0.2493): 0.02718 ± 0.00049 W/m/K
- thermal conductivity (350 K, 3740 kPa, x1 = 0.7496): 0.03813 ± 0.00067 W/m/K
- thermal conductivity (350 K, 3760 kPa, x1 = 0.4994): 0.03258 ± 0.00058 W/m/K
- thermal conductivity (350 K, 3840 kPa, x1 = 0.2493): 0.02747 ± 0.0005 W/m/K
- thermal conductivity (350 K, 4220 kPa, x1 = 0.2493): 0.02766 ± 0.0005 W/m/K
- thermal conductivity (350 K, 4324 kPa, x1 = 0.4994): 0.03282 ± 0.00058 W/m/K
- thermal conductivity (350 K, 4410 kPa, x1 = 0.7496): 0.03855 ± 0.00068 W/m/K
- thermal conductivity (350 K, 4600 kPa, x1 = 0.2493): 0.02799 ± 0.0005 W/m/K
- thermal conductivity (350 K, 5140 kPa, x1 = 0.7496): 0.039 ± 0.00068 W/m/K
- thermal conductivity (350 K, 5145 kPa, x1 = 0.4994): 0.03347 ± 0.00059 W/m/K
- thermal conductivity (350 K, 5860 kPa, x1 = 0.7496): 0.03958 ± 0.00069 W/m/K
- thermal conductivity (350 K, 5920 kPa, x1 = 0.4994): 0.03401 ± 0.0006 W/m/K
- thermal conductivity (350 K, 6410 kPa, x1 = 0.7496): 0.03989 ± 0.0007 W/m/K
- thermal conductivity (350 K, 6670 kPa, x1 = 0.4994): 0.03477 ± 0.00062 W/m/K
- thermal conductivity (350 K, 7080 kPa, x1 = 0.7496): 0.04053 ± 0.00071 W/m/K

From the NIST ThermoML archive (doi:10.1007/s10765-005-5566-6)
